Laboratory results: patent US9617311B2, “Use of PEDF-derived polypeptides for promoting stem cells proliferation and wound healing” (Mackay Memorial Hospital, priority 2011, dated 2017)

How the values were obtained:
[1] = system: limbal epithelial stem cells (LSCs); test: In vitro LSC proliferation, BrdU pulse-labeling with ΔNp63α immunostaining; type: cell-based, New Zealand white rabbits; conditions: BrdU 2 hours; for percentage of BrdU and ΔNp63α-double positive cells per total ΔNp63α-positive cells: 25 nM peptide or 4.5 nM PEDF in medium, control medium 3.0±0.5%, mean±SEM
Description: LSCs were isolated from six-month-old New Zealand white rabbits and used for cell-suspension culture in accordance with the method previously described by Cheng et al. (The growth-promoting effect of KGF on limbal epithelial cells is mediated by upregulation of DeltaNp63alpha through the p38 pathway. J Cell Sci 2009; 122 (Pt 24): 4473-4480) and Wang et al. (Importin 13 serves as a potential marker for corneal epithelial progenitor cells. Stem Cells 2009; 27: 2516-2526) with a slight modification. Rabbit limbal tissues were washed in PBS containing 100 U/ml penicillin and 50 μg/ml gentamicin. After carefully removing the iris, and excessive sclera, the limbal rings were exposed to dispase II (1.2 IU/ml in Hanks' balanced salt solution free of Mg^2+ and Ca^2+) at 4° C. for 16 hours. The loosened epithelial sheets were removed with a cell scraper and separated into single cells by enzymatic digestion (0.05% trypsin, and 0.01% EDTA) for 15 min at 37° C. with gentle shaking and transferred to a stop medium (9 ml of HEPES-buffered DMEM containing 10% FBS). Cells were then collected by centrifugation (400×g for 5 min).
About 1×10^5 cells were seeded on each wells of a 6-well plate and incubated in a DMEM/Ham's F-12 basal medium (10 mM HEPES, 5 ng/ml human EGF, 1% SITE liquid medium, antibiotic-antimicotic solutions, 0.5% DMSO and 0.5 μg/ml hydrocortisone) supplemented with 10% FBS for 2 days, and then shifted to a basal medium or basal medium containing 4.5 nM PEDF, 25 nM 39-mer, 25 nM 34-mer, 25 nM 29-mer, 25 nM 25-mer, 25 nM 20-mer, 25 nM 18-mer, 25 nM Mo 29-mer or 25-nM Mo 20-mer. The cells were continued cultivated at 37° C. under 5% CO2 for another 3 days until they reached confluence (passage 0). LSCs were co-cultured with MMC-treated NIH-3T3 fibroblast feeder cells located within trans-well (0.4 μm pore, BD Biosciences, Bedford, Mass.). For passage purpose, near-confluent cells were harvested again by enzymatic treatment (i.e., 0.25% trypsin), and then 1×10^5 subcultured cells were further cultured in the respective medium, and proliferative capacity of cells was compared every 4 days after continuously culture-subculture (passage).
De-paraffinized tissue sections or 4% paraformaldehyde-fixed LSCs were blocked with 10% goat serum and 5% BSA in PBST (PBS containing 0.1% Tween-20) for 1 hour. Staining was done using primary antibodies against ΔNp63α (1:150 dilution), BrdU (1:250 dilution), and keratin-3 (1:250 dilution) at 37° C. for 2 hours, followed by incubation with the appropriate rhodamine- or FITC-conjugated donkey IgG (1:500 dilution) for 1 hour at RT. Nuclei were identified by counterstaining with Hoechst 33258 for 7 minutes. Images were captured using a Zeiss epifluorescence microscope with a CCD camera and photographs were taken by using the Axiovert software.
2×10^5 limbal cells (the 1st passage) were seeded at a slide coated with FNC COATING MIX® solution (Athena Enzyme Systems, Baltimore, Md.) and incubated with a culture medium for one day. BrdU (final, 10 μM) was added to the culture for 2 hours. After being fixed with 4% paraformaldehyde, cells were exposed to cold methanol for 2 minutes, and then treated with 1 N HCl at RT for 1 hour before performing immunofluorescence. For animal study, BrdU was reconstituted in DMSO as stock (80 mM). 10 μl of BrdU mixed with 90 μl of PBS was intraperitoneally injected into mouse 3 hours prior to euthanasia. DNA synthesis was assessed by BrdU labeling with anti-BrdU antibodies.

corneal wound = test: Corneal wound healing in mice, fluorescein staining; type: in vivo, C57BL/6 mice; conditions: for corneal re-epithelialization after 48 hours: 20 μl eye ointment with 50 μM peptide once a day, 2 mm wound; for residual epithelial defect, percentage of the original wound: 50 μM peptide eye ointment once a day
Description: The experiments were performed using eight-week-old female C57BL/6 mice, and the procedures were approved by the Mackay Memorial Hospital Review Board for animal investigation. Animals were anesthetized by an intraperitoneal injection of a mixture of zoletil (6 mg/kg) and xylazine (3 mg/kg). One filter paper (0.9 mm diameter) soaked with 20% ethanol was placed on the central cornea of right eye for one minute and then irrigated extensively with PBS. Subsequently, mechanical epithelial scrape was performed using a punch under a dissection microscope to create a circular injury (2 mm diameter) at the entire corneal region of the mouse eye without encroaching the corneal stroma, limbus or conjunctiva.
Each synthetic peptide (the 39-mer, 34-mer, 29-mer, 25-mer, 20-mer, 18-mer, Mo 29-mer or Mo 20-mer) was reconstituted in DMSO as stock (5 mM) and mixed with TOBREX® eye ointment (Alcon; containing 0.3% Tobramycin and 0.5% Chlorobutanol) to a concentration 50 μM. In each of the treatment group (n=6-10), the right eye was treated with 20 μl eye ointment containing the synthetic peptide once a day after the scrape injury. In the control group (n=20), right eye was treated with 20 μl of eye ointment mixed with vehicle DMSO. Wound size was determined by staining with topical fluorescein (Fluor-I-Strip, Ayerst Laboratories, Philadelphia, Pa.) and photographed with a digital camera. The area of defect was quantified from the photographs using a computer-assisted image analyzer (Adobe Photoshop CS3 10.0) and was calculated as the percentage of residual epithelial defect at each time point/initial wound area.
To investigate the effect of PEDF-derived short peptides on corneal wound healing in mice, corneal wound was created by a circular punch (2 mm diameter), then control eye-ointment or eye-ointment containing the short synthetic PEDF peptide(s) of this invention was applied to the wounded eye, and wound healing was subsequently evaluated by fluorescein staining. No significant differences in the size of the initial abrasion were noted between synthetic PEDF peptide-treated and control mice.

[2] = system: full-thickness skin excisional wounds; test: Skin wound healing in mice, wound area from photographs; type: in vivo, C57L/B6 mice; conditions: for residual epithelial defects, percentage of the original wound: 25 μl skin ointment with 50 μM peptide once daily
Description: FIG. 6A provides photographs and FIG. 6B is a histogram, and together, they illustrate the skin (epithelial) wound-healing of mice from treatment groups according to another example of the present disclosure. 4 mm punch wounds were made on the dorsal side of C57/B6 mice. Skin ointment was treated once a day. Photographs of the wounded skin and ruler (scale 10 mm) were captured with a CCD camera (Olympus). The residual epithelial defect (%) is presented as percentage of the original wound. Data are shown as mean±SE.
To perform full-thickness skin excision, 8- to 10-week-old C57L/B6 mice were respectively anesthetized by an intraperitoneal injection of a mixture of zoletil (6 mg/kg) and xylazine (3 mg/kg). Two full-thickness skin excisional wounds, 4 mm in diameter were made on either side of the dorsal midline using Sklar Tru-Punch disposable biopsy punch (Sklar, West Chester, Pa., USA). In each treatment group (n=6), the skin wound was treated with 25 μl skin ointment (containing 50 μM synthetic peptide and 0.006 μl DMSO vehicle) once daily after the skin scraping. In the control group (n=6), skin wound was treated with 25 μl of skin ointment with equal concentration of DMSO. Each gram of the above skin ointment contains 5 mg neomycin sulfate and 12.5 mg Bacitracin Zinc. Wounds were left uncovered and harvested 4 and 7 days after injury. Mice were housed individually during the healing period.
The area of wound was quantified from the photographs using a computer-assisted image analyzer (Adobe Photoshop CS3 10.0) and was calculated as the percentage of residual epithelial defect at each time point/initial wound area.

[3] = system: hair follicle stem cells (HFSCs); test: In vitro HFSC proliferation, BrdU pulse-labeling with Lgr6 immunostaining; type: cell-based, Human; conditions: 50 nM peptide or 4.5 nM PEDF in medium; BrdU 2 hours; control 31.9±5.6%
Description: FIG. 5A provides immunofluorescence microscopy photographs and FIG. 5B is a histogram, and together, they illustrate the in vitro proliferation of HFSCs from treatment groups according to one example of the present disclosure. HFSC proliferation was determined by BrdU labeling for 2 hours. HFSCs (Lgr6, green) and BrdU (red) were detected by immunofluorescence microscopy (original magnification, ×1000). Twenty randomly selected fields in each group were photographed, and the percentage of BrdU and Lgr6-double positive cells (pale pink) per total Lgr6-positive cells was calculated. *P<0.001 versus untreated cells.
Human hair follicles were collected from hairs of healthy donors. The follicles were dissected with tweezers under microscope and most of adipose and connective tissue was removed. The bulge region of hair follicle under the sebaceous gland was cut and then bulge fragments (including central isthmus) were transferred into a 35-mm dish containing 1 ml of collagenase A (1 mg/ml; Roche) and incubated for 1.5 hours at 37° C. to digest the collagen capsule. Subsequently, the bulge fragments were transferred into a fresh cell culture dish containing dispase II (2.4 U/ml)/0.05% trypsin and further incubated for 1.5 hours at 37° C. to obtain a single cell suspension.
After mechanical dissection and enzymatic digestion, the suspended bulge cells isolated from five bulge fragments were seeded into a well of 12-well culture plate and incubated with the basal medium for 5 days to facilitate cell adhesion. The basal medium contains four parts Gibco calcium-free Dulbecco's modified Eagle's medium (DMEM) and one part Ham's F12 medium (calcium concentration reached about 0.25 mM) and supplemented with 10% FBS, 10 ng/ml human epidermal growth factor, 500 mg/I L-glutamine, 0.2% bovine pituitary extract, […] hydrocortisone, 1% ITSE as well as antibiotic-antimicotic solutions. Cultivation method was similar to that of Blazejewska et al. (Stem Cells 2009; 27:642). After 5 days of incubation, cells were cultured in the serum-free basal medium or basal medium containing 4.5 nM PEDF, 50 nM 29-mer, or 50 nM 20-mer, until near confluence (about 2 weeks; passage 0). The medium was changed every 2 to 3 days. The bulge cells were co-cultured with 3T3 fibroblast feeder cells. For passage, near-confluent cells were harvested by enzymatic treatment (i.e., 0.25% trypsin) for 5 min at 37° C. Approximately 1×10^5 human bulge cells were transferred to a new dish and allowed to grow for 14 days to near confluence (passage 1). […]

[4] = day 4 post-injury, control 61.5±3.2%
[5] = day 7 post-injury, control 44.5±5.3%

## ALSALSLGAEQRTESIIHRALYYDLISSPDIHGT [34-mer, short synthetic PEDF peptide derived from the 39-mer]
[1]
  percentage of BrdU and ΔNp63α-double positive cells per total ΔNp63α-positive cells: 30.0±3.4%
Corneal wound
  corneal re-epithelialization after 48 hours: complete corneal re-epithelialization
Corneal wound; 24 hours, control 84.9±5.1%
  residual epithelial defect, percentage of the original wound: 40.6±7.2%
Corneal wound; 48 hours, control 39.5±3.1%
  residual epithelial defect, percentage of the original wound: 4.6±2.1%
[2]; [4]
  residual epithelial defects, percentage of the original wound: 41.4±2.5%
[2]; [5]
  residual epithelial defects, percentage of the original wound: 17.9±6.1%

## EQRTESIIHRALYYDLISSPDIHGT [25-mer]
[1]; 25 nM peptide in medium
  enhanced LSC proliferation versus control medium: enhanced proliferation was not observed
Corneal wound
  corneal re-epithelialization after 48 hours: incompletely healed wounds
[2]; days 4 and 7, 50 μM peptide skin ointment once daily
  promotion of skin wound healing: not able to promote wound healing

## LSVATALSALSLGAEQRTESIIHRALYYDLISSPDIHGT [39-mer, synthetic peptide, residues 83-121 of human PEDF]
[1]
  percentage of BrdU and ΔNp63α-double positive cells per total ΔNp63α-positive cells: 30.1±1.9%
Corneal wound
  corneal re-epithelialization after 48 hours: complete corneal re-epithelialization
Corneal wound; 24 hours, control 84.9±5.1%
  residual epithelial defect, percentage of the original wound: 37.2±4.3%
Corneal wound; 48 hours, control 39.5±3.1%
  residual epithelial defect, percentage of the original wound: 4.8±2.7%
[2]; [4]
  residual epithelial defects, percentage of the original wound: 48.1±3.2%
[2]; [5]
  residual epithelial defects, percentage of the original wound: 18.4±5.7%

B1: full-length PEDF: Native human pigment epithelium-derived factor purified from human plasma via collagen I-sepharose resin (protein, listed as Homo sapiens)
chain: MQALVLLLCIGALLGHSSCQNPASPPEEGSPDPDSTGALVEEEDPFFKVPVNKLAAAVSNFGYDLYRVRSSTSPTTNVLLSPLSVATALSALSLGAEQRTESIIHRALYYDLISSPDIHGTYKELLDTVTAPQKNLKSASRIVFEKKLRIKSSFVAPLEKSYGTRPRVLTGNPRLDLQEINNWVQAQMKGKLARSTKEIPDEISILLLGVAHFKGQWVTKFDSRKTSLEDFYLDEERTVRVPMMSDPKAVLRYGLDSDLSCKIAQLPLTGSMSIIFFLPLKVTQNLTLIEESLTSEFIHDIDRELKTVQAVLTVPKLKLSYEGEVTKSLQEMKLQSLFDSPDFSKITGKPIKLTQVEHRAGFEWNEDGAGTTPSPGLQPAHLTFPLDYHLNQPFIFVLRDTDTGALLFIGKILDPRGP
[1]
  percentage of BrdU and ΔNp63α-double positive cells per total ΔNp63α-positive cells: 22.0±1.5%
[3]
  percentage of BrdU and Lgr6-double positive cells per total Lgr6-positive cells: 73.8±6.0%
